These results are taken from US20190367516A1 (Bayer Pharma Aktiengesellschaft, priority 2015, published 2019).

For one test, the system named is anaesthetized rats. As to the kind of experiment: Effects on the heart rate in anaesthetized rats (B-9). The class given is in vivo, rat. Particulars: i.v. infusion via jugular vein over 5 min, dose not given, in some cases means of several determinations. Here is the method: B-9. Effects of the Test Substances on the Heart Rate in Anaesthetized Rats
Male rats of the strain (WI) WU Br from the breeder Charles River are anaesthetized initially with a 4-5% isoflurane inhalation for approx. 3 min. Subsequently, anaesthesia is maintained using a 1.5% isoflurane inhalation. For this purpose, the anaesthetized animals are fixed on a heated operating plate. By means of visual inspection and between toe reflex, the depth of anaesthesia is checked.
For the application of the test substance, an i.v. route into the jugular vein is used. A caudal to cranial skin incision is then made longitudinally and both the cervical musculature and the salivary glands are severed. The right common carotid artery is exposed and blood supply is arrested both proximally and distally. Using microinstrumentation, a TIP catheter (1.2 F) is introduced into the vessel in order to measure the arterial pressure and the heart rate.
Initially, both parameters are monitored for 10 min in the basal state without substance addition. The substances to be investigated are dissolved in suitable solvent mixtures and subsequently administered at various dosages to a group of animals in each case via the jugular vein by an infusion pump over 5 min. A solvent-treated group is used as control under the same experimental conditions. The arterial blood pressure and heart rate with substance addition is determined for 20 min. The data are registered with the PowerLab system (AD instruments) and evaluated using the LabChart program (AD instruments).
The values determined in this manner for the percentage decrease in heart rate for individual working examples are given in Table 4 below (in some cases as means of a plurality of independent individual determinations): […]

For test [1], the target named is T1, human M2 receptor (Homo sapiens, UniProt P08172).
T1 sequence (P08172 1-466): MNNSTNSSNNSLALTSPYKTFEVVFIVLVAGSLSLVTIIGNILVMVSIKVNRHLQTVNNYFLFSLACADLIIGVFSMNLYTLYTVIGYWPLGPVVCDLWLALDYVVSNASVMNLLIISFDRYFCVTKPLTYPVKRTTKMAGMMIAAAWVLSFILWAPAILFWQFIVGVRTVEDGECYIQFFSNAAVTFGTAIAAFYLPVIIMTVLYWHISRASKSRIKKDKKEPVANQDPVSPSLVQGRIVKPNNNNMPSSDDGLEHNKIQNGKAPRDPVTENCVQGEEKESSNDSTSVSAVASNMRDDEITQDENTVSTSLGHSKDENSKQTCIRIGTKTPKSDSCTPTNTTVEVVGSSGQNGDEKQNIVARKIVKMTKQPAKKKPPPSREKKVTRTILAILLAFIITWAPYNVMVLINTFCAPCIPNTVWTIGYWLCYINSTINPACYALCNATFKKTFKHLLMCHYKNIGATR
The format is cell-based. The note with it: α >1 = positive cooperativity.

In test [2] the target is T2, Human Recombinant M2 Muscarinic Acetylcholine Receptor (Homo sapiens, UniProt P08172).
T2 sequence (P08172 1-466): T1 sequence (P08172 1-466)
As to the kind of experiment: Selectivity test, Ca2+ release (Eurofins GPCRProfiler): allosteric modulator assay, M2 (B-3.2). Particulars: for Selectivity (Shift EC50 M2/Shift EC50 M4): Table 2, quotient of allosteric shifts M2/M4; for Selectivity (Shift EC50 M2/Shift EC50 M1): Table 3, quotient of allosteric shifts M2/M1. The format is cell-based. Here is the method:
B-3. Selectivity Test with Respect to Human Muscarinic Acetylcholine Receptors
Any potentially agonistic effect, or else positive allosteric effect, of the test substances on other human muscarinic acetylcholine receptors can be determined in a functional Ca^2+ release test (Eurofins; GPCRProfiler® Services in agonistic and allosteric mode for Mx Receptors; cat#: HTS600GPCR).
The substance test is conducted with a FLIPR^TETRA instrument (Molecular Devices).
After the agonism assay has ended, the assay plate is incubated at 25° C. for 7 min. After the incubation period, the positive allosteric modulator assay is initialized.
B-3.2. Allosteric Modulator Assay
In order to examine any positive or negative allosteric effect of the test substances on other human muscarinic acetylcholine receptors and the M2 receptor itself, every substance concentration is combined with an acetylcholine 8-point dose-response curve. Addition of agonist solution is again followed in turn by the measurement of cell fluorescence for a period of 180 sec. The shift in the acetylcholine dose-response curve (maximum shift in the EC50 of acetylcholine) is analysed and quantified by means of GraphPad PRISM (Sigmoidal dose-response (variable slope)−EC50). Finally, quotients of the allosteric shift for the M2 receptor and M4 receptor are formed, which function in turn as a measure of the respective selectivity.

For test [3], the target named is T1, human M2 receptor.
Excerpt: Functional M2-GIRK1/4 Activation Test
The binding of orthosteric agonists (endogenous ligand: acetylcholine) to the M2 receptor leads to receptor activation or a change in conformation of the receptor in the manner of a shift in equilibrium in favour of the active receptor conformation.
The agonist-induced change in conformation of the M2 receptor results in a Gαi protein activation. […] Under physiological conditions, the result is then a selective efflux of potassium from the cell along the electrochemical gradient. […] The extent of hyperpolarization can therefore be regarded as a measure of the activation of the M2 receptor.
The test cell used is a recombinant CHO-DUKX cell line which has been stably transfected with cDNA coding for the human M2 receptor and with cDNA coding for both GIRK1/4 subunits (CHO-DUKX-M2-GIRK). The transmembrane potential, or the relative changes in the transmembrane potential as a function of substance addition or M2 activation, is determined by means of a voltage-sensitive dye (FLIPR Membrane Potential Assay Kit Blue, Molecular Devices # R8034) and the measurement of cell fluorescence using a proprietary fluorescence imaging instrument.
Determination of the Allosteric Potency of the Test Substances (EC50 Value)
The sowing medium consisted of MEM alpha medium (supplemented with 5% FCS, 2% Glutamax, no genticin).
For the particular measurement, the medium was removed and the cells were laden with the voltage-sensitive dye for at least 6 min at room temperature (30 μl of loading buffer per 384-well). This was followed, in a first measurement, by the determination of the fluorescence for the resting transmembrane potential for a period of 5 sec. Thereafter, 10 μl in each case of the test substances diluted in loading buffer were added, followed by a second measurement to determine the transmembrane potential for a period of 50 sec. Finally, the cells were admixed with 10 μl of agonist solution (acetylcholine dissolved in loading buffer). Acetylcholine was used at the concentration corresponding to the EC20, which had been determined in a preliminary test. The M2-mediated GIRK1/4 activation or hyperpolarization was then monitored in a third measurement over a period of 60 sec. The EC50 value (degree of allosteric potency of test compound) and the efficiency (measure of the boosting of the acetylcholine effect at an EC20 acetylcholine concentration) were determined with the aid of a 4-parameter logistic function (Hill function).
Setting [4] is: shift in the acetylcholine dose-response curve (Allosteric EC50 shift, GraphPad PRISM).
[5] abbreviates: test substance concentration 1 μM.
The mark [6] stands for this setting: test substance concentration 10 μM.
The mark [7] stands for this setting: Receptor activity EC50, M2-GIRK1/4 activation test, acetylcholine at EC20, allosteric potency, in some cases mean values from two or more determinations.
The mark [8] stands for this setting: shift of acetylcholine dose-response curve (Allosteric EC50 shift).
The mark [9] stands for this setting: Receptor activity EC50, allosteric potency at EC20 acetylcholine, M2-GIRK1/4 reporter cells, in some cases mean of two or more determinations.
The mark [10] stands for this setting: read-out: Efficiency, boosting of the acetylcholine effect at EC20 acetylcholine concentration, M2-GIRK1/4 reporter cells.

Each structure is given as a SMILES string. pEC50: −log10 of the molar value. Where two headings read alike, the source gives them in different places.

With `CC[C@@H](NC(=O)c1cn(-c2ccc(F)cc2F)c2nc(N3C[C@@H](O)CC3=O)ccc2c1=O)C(F)(F)F` [Example 175], the “Reduction in heart rate (%)” value with anaesthetized rats was 6%. In addition, at human M2 receptor [1] (setting [4]), the “Cooperativity (alpha factor)” value is 33. Besides, the “Selectivity (Shift EC50 M2/Shift EC50 M4)” value in test [2] (setting [5]) came out at 29; in test [2] (setting [6]), 83. The “Selectivity (Shift EC50 M2/Shift EC50 M1)” value in test [2] (setting [6]) came to 287. The molecule further had a pEC50 on human M2 receptor [3] (setting [7]) of 7.16. Besides, the Emax on human M2 receptor [3] (read-out: Efficiency) amounted to 97.3%.

Take `O=C(N[C@@H](C1CC1)C(F)(F)F)c1cn(-c2c(F)cc(F)cc2F)c2nc(N3CCNC3=O)ccc2c1=O` [Example 323, N-[(1 S)-1-Cyclopropyl-2,2,2-trifluoroethyl]-4-oxo-7-(2-oxoimidazolidin-1-yl)-1-(2,4,6-trifluorophenyl)-1,4-dihydro-1,8-naphthyridine-3-carboxamide]: the “Reduction in heart rate (%)” value with anaesthetized rats was found to be 13%. Besides, the “Cooperativity (alpha factor)” value at human M2 receptor [1] (setting [4]) came to 16. Further, the “Selectivity (Shift EC50 M2/Shift EC50 M4)” value in test [2] (setting [5]) was 52; in test [2] (setting [6]) it was 44. Also, in test [2] (setting [6]), the “Selectivity (Shift EC50 M2/Shift EC50 M1)” value is given as 31. In addition, the pEC50 at human M2 receptor [3] (setting [7]) is 7.85.

Regarding `O=C(N[C@@H](C1CC1)C(F)(F)F)c1cn(-c2c(F)cc(F)cc2F)c2nc(N3C[C@@H](O)CC3=O)ccc2c1=O` [Example 404, N-[(1 S)-1-Cyclopropyl-2,2,2-trifluoroethyl]-7-[(4S)-4-hydroxy-2-oxopyrrolidin-1-yl]-4-oxo-1-(2,4,6-trifluorophenyl)-1,4-dihydro-1,8-naphthyridine-3-carboxamide], the “Reduction in heart rate (%)” value in the test on anaesthetized rats stood at 9%. In addition, the “Cooperativity (alpha factor)” value at human M2 receptor [1] (setting [8]) is on record as 35. Further, at human M2 receptor [3] (setting [9]), the pEC50 was 8.15. The Emax at human M2 receptor [3] (setting [10]) turned out to be 98.3%.

As to `CC[C@@H](NC(=O)c1cn(-c2c(F)cc(F)cc2Cl)c2nc(N3C[C@@H](O)CC3=O)ccc2c1=O)C(F)(F)F` [Example 407, 1-(2-Chloro-4,6-difluorophenyl)-7-[(4S)-4-hydroxy-2-oxopyrrolidin-1-yl]-4-oxo-N-[(2R)-1,1,1-trifluorobutan-2-yl]-1,4-dihydro-1,8-naphthyridine-3-carboxamide], the “Reduction in heart rate (%)” value in the test on anaesthetized rats is recorded as 13%. Moreover, the “Cooperativity (alpha factor)” value at human M2 receptor [1] (setting [8]) worked out at 32. Moreover, the negative logarithm of the EC50 (pEC50) at human M2 receptor [3] (setting [9]) is 8.15. Further, the Emax on human M2 receptor [3] (setting [10]) worked out at 98.5%.

Consider `O=C(N[C@H](C1CC1)C(F)(F)F)c1cn(-c2c(F)cc(F)cc2Cl)c2nc(N3C[C@@H](O)CC3=O)ccc2c1=O` [Example 414, 1-(2-Chloro-4,6-difluorophenyl)-N-[(1R)-1-cyclopropyl-2,2,2-trifluoroethyl]-7-[(4S)-4-hydroxy-2-oxopyrrolidin-1-yl]-4-oxo-1,4-dihydro-1,8-naphthyridine-3-carboxamide], for which the “Reduction in heart rate (%)” value with anaesthetized rats is 16%. In addition, the “Cooperativity (alpha factor)” value at human M2 receptor [1] (setting [8]) came to 40. Besides, the pEC50 at human M2 receptor [3] (setting [9]) was 8.05. Further, the Emax at human M2 receptor [3] (setting [10]) is 100%.

In the case of `CC(C)(CC(F)(F)F)NC(=O)c1cn(-c2c(F)cc(F)cc2F)c2nc(N3C[C@@H](O)CC3=O)ccc2c1=O` [Example 511, 7-[(4S)-4-Hydroxy-2-oxopyrrolidin-1-yl]-4-oxo-N-(4,4,4-trifluoro-2-methylbutan-2-yl)-1-(2,4,6-trifluorophenyl)-1,4-dihydro-1,8-naphthyridine-3-carboxamide], the “Reduction in heart rate (%)” value with anaesthetized rats was found to be 10%. At human M2 receptor [1] (setting [8]), the “Cooperativity (alpha factor)” value was determined as 30. At human M2 receptor [3] (setting [9]), the negative logarithm of the EC50 (pEC50) was 8.05. In addition, the Emax at human M2 receptor [3] (setting [10]) stood at 100%.

Turning to `O=C(N[C@@H](C1CC1)C(F)(F)F)c1cn(-c2c(F)cc(F)cc2F)c2nc(N3C[C@@H](O)[C@H](O)C3)ccc2c1=O` [Example 590, N-[(1S)-1-Cyclopropyl-2,2,2-trifluoroethyl]-7-[(3R,4R)-3,4-dihydroxypyrrolidin-1-yl]-4-oxo-1-(2,4,6-trifluorophenyl)-1,4-dihydro-1,8-naphthyridine-3-carboxamide], the “Reduction in heart rate (%)” value with anaesthetized rats was determined as 13%. Besides, on human M2 receptor [1] (setting [8]), the “Cooperativity (alpha factor)” value amounted to 43. Moreover, in test [2] (setting [5]), the “Selectivity (Shift EC50 M2/Shift EC50 M4)” value is given as 7. Besides, in test [2] (setting [6]), the “Selectivity (Shift EC50 M2/Shift EC50 M4)” value is listed as 33 and the “Selectivity (Shift EC50 M2/Shift EC50 M1)” value stood at 30. The negative-log EC50 (pEC50) on human M2 receptor [3] (setting [9]) was 7.82. For the same molecule, at human M2 receptor [3] (read-out: Efficiency), the Emax amounted to 100%.
